Test results taken from PubChem BioAssay AID296 (DTP/NCI, 2004).
Several values for one entry are separate records, joined by “and”; a condition that tells them apart may be missing. Equal entries are not always repeated. Records with an inconclusive call do not appear.

Tested on: MX-1 breast xenograft, nude mice, tumor weight T/C
Test: NCI In Vivo Anticancer Drug Screen. Data for tumor model Human Mammary Carcinoma MX-1 Xenograft (intrarenal inoculation) in NU/NU Swiss (nude) mice
Details: endpoint: mean tumor weight change, higher = larger tumour
How it was run: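 Tumor-bearing mice were treated with test compound alongside a vehicle-treated control group. Survival or tumor size was measured, and activity is expressed as the treated-group value divided by the control-group value.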

[1] = dose: 300.0 mg/kg/injection, schedule: Q04DX003 (sc), vehicle: saline
[2] = dose: 600.0 mg/kg/injection, schedule: Q04DX003 (sc), vehicle: saline
[3] = dose: 1200.0 mg/kg/injection, schedule: Q04DX003 (sc), vehicle: saline
[4] = dose: 25.0 mg/kg/injection, schedule: Q04DX003 (sc), vehicle: Klucel (hydroxypropylcellulose) (HPC)
[5] = dose: 50.0 mg/kg/injection, schedule: Q04DX003 (sc), vehicle: Klucel (hydroxypropylcellulose) (HPC)
[6] = dose: 50.0 mg/kg/injection, schedule: Q01DX010 (sc), vehicle: saline with Tween-80
[7] = dose: 2.0 mg/kg/injection, schedule: Q01DX010 (sc), vehicle: saline
[8] = dose: 4.0 mg/kg/injection, schedule: Q01DX010 (sc), vehicle: saline
[9] = dose: 300.0 mg/kg/injection, schedule: Q04DX003 (sc), vehicle: saline with Tween-80
[10] = dose: 600.0 mg/kg/injection, schedule: Q04DX003 (sc), vehicle: saline with Tween-80
[11] = dose: 1200.0 mg/kg/injection, schedule: Q04DX003 (sc), vehicle: saline with Tween-80
[12] = dose: 2400.0 mg/kg/injection, schedule: Q04DX003 (sc), vehicle: saline with Tween-80
[13] = dose: 75.0 mg/kg/injection, schedule: Q04DX003 (sc), vehicle: Klucel (hydroxypropylcellulose) (HPC)
[14] = dose: 300.0 mg/kg/injection, schedule: Q04DX003 (sc), vehicle: Klucel (hydroxypropylcellulose) (HPC)
[15] = dose: 600.0 mg/kg/injection, schedule: Q04DX003 (sc), vehicle: Klucel (hydroxypropylcellulose) (HPC)
[16] = dose: 1200.0 mg/kg/injection, schedule: Q04DX003 (sc), vehicle: Klucel (hydroxypropylcellulose) (HPC)
[17] = dose: 150.0 mg/kg/injection, schedule: Q04DX003 (sc), vehicle: Klucel (hydroxypropylcellulose) (HPC)

## COC(=O)C12OCC34C(CC5C(C)=CC(=O)C(O)C5(C)C3C(O)C1O)OC(=O)C(OC(=O)CC(C)C)C24 (configuration not stated)
dose: 1.5 mg/kg/injection, schedule: Q04DX003 (sc), vehicle: saline + alcohol
  T/C: 107 % of control
dose: 3.0 mg/kg/injection, schedule: Q04DX003 (sc), vehicle: saline + alcohol
  T/C: 58 % of control

## NC(CCC(=O)NC(CS)C(=O)NCC(=O)O)C(=O)O (configuration not stated)
[1]
  T/C: 87 % of control
[2]
  T/C: 93 % of control
[3]
  T/C: 104 % of control
dose: 2400.0 mg/kg/injection, schedule: Q04DX003 (sc), vehicle: saline
  T/C: 89 % of control

## c1ccc2c(NCCCCCCCCNc3c4ccccc4nc4ccccc34)c3ccccc3nc2c1
dose: 10.0 mg/kg/injection, schedule: Q01DX010 (sc), vehicle: Klucel (hydroxypropylcellulose) (HPC)
  T/C: 93 % of control
dose: 20.0 mg/kg/injection, schedule: Q01DX010 (sc), vehicle: Klucel (hydroxypropylcellulose) (HPC)
  T/C: 16 % of control
dose: 40.0 mg/kg/injection, schedule: Q01DX010 (sc), vehicle: Klucel (hydroxypropylcellulose) (HPC)
  T/C: 93 % of control
dose: 80.0 mg/kg/injection, schedule: Q01DX010 (sc), vehicle: Klucel (hydroxypropylcellulose) (HPC)
  T/C: 58 % of control

## C/C(=N\N=C(/[Se])N1CC2CCC(CC2)C1)c1ccccn1
[4]
  T/C: 106 % of control
[5]
  T/C: 110 % of control

## O=c1cc(CCl)[nH]nc1CCl
[6]
  T/C: 77 % of control
dose: 100.0 mg/kg/injection, schedule: Q01DX010 (sc), vehicle: saline with Tween-80
  T/C: 42 % of control

## C=C(C)[C@@H]1CCc2c(O)c(O)c(=O)cc(C)c2C1
dose: 150.0 mg/kg/injection, schedule: Q04DX003 (sc), vehicle: saline
  T/C: 91 % of control
[1]
  T/C: 107 % of control
[2]
  T/C: 89 % of control
[3]
  T/C: 98 % of control

## C[CH2][Sn]([CH2]C)([O]S(C)(=O)=O)[O]S(C)(=O)=O
dose: 6.25 mg/kg/injection, schedule: Q04DX003 (sc), vehicle: saline with Tween-80
  T/C: 83 % of control
dose: 12.5 mg/kg/injection, schedule: Q04DX003 (sc), vehicle: saline with Tween-80
  T/C: 95 % of control
dose: 25.0 mg/kg/injection, schedule: Q04DX003 (sc), vehicle: saline with Tween-80
  T/C: 95 % of control

## COc1cc([C@@H]2c3cc4c(c(O)c3C[C@H]3COC(=O)[C@@H]32)OCO4)cc(OC)c1OC
[7]
  T/C: 78 % of control
[8]
  T/C: 56 % of control

## NC(=S)c1cn(C2OC(CO)C(O)C2O)c2ncnc(N)c12 (configuration not stated)
dose: 6.25 mg/kg/injection, schedule: Q04DX003 (sc), vehicle: suspension in saline
  T/C: 50 % of control
dose: 12.5 mg/kg/injection, schedule: Q04DX003 (sc), vehicle: suspension in saline
  T/C: 9 % of control

## O=C(Nc1nncs1)c1cccs1
[9]
  T/C: 98 % of control
[10]
  T/C: 177 % of control
[11]
  T/C: 115 % of control
[12]
  T/C: 65 % of control

## COc1c(O)c2c(c3cc(C(=O)N4CCc5c4c(O)c(OC)c4[nH]c(C(=O)N6CC7CC78C6=CC(=O)c6[nH]cc(C)c68)cc54)[nH]c13)CCN2C(N)=O (configuration not stated)
dose: 2.5 mg/kg/injection, schedule: Q01DX010 (sc), vehicle: DMSO
  T/C: 37 % of control
dose: 5.0 mg/kg/injection, schedule: Q01DX010 (sc), vehicle: DMSO
  T/C: 82 % of control
dose: 10.0 mg/kg/injection, schedule: Q01DX010 (sc), vehicle: DMSO
  T/C: 1 % of control
dose: 6.25 micrograms/kg/injection, schedule: Q01DX010 (sc), vehicle: DMSO
  T/C: 63 % of control
dose: 12.5 micrograms/kg/injection, schedule: Q01DX010 (sc), vehicle: DMSO
  T/C: 53 % of control
dose: 25.0 micrograms/kg/injection, schedule: Q01DX010 (sc), vehicle: DMSO
  T/C: 68 % of control
dose: 50.0 micrograms/kg/injection, schedule: Q01DX010 (sc), vehicle: DMSO
  T/C: 90 % of control
dose: 100.0 micrograms/kg/injection, schedule: Q01DX010 (sc), vehicle: DMSO
  T/C: 85 % of control
dose: 400.0 micrograms/kg/injection, schedule: Q01DX010 (sc), vehicle: DMSO
  T/C: 117 % of control

## COc1cc2cc(c1Cl)N(C)C(=O)CC(OC(=O)C(C)C)C1(C)OC1C(C)C1CC(O)(NC(=O)O1)C(OC)/C=C/C=C(C)C2 (configuration not stated)
dose: 1.56 micrograms/kg/injection, schedule: Q01DX010 (sc), vehicle: saline + alcohol
  T/C: 40 % of control
dose: 3.12 micrograms/kg/injection, schedule: Q01DX010 (sc), vehicle: saline + alcohol
  T/C: 67 % of control
dose: 6.25 micrograms/kg/injection, schedule: Q01DX010 (sc), vehicle: saline + alcohol
  T/C: 53 % of control
dose: 12.5 micrograms/kg/injection, schedule: Q01DX010 (sc), vehicle: saline + alcohol
  T/C: 67 % of control

## OCC1OC(n2cnc3cc(Cl)c(Cl)cc32)C(O)C1O (configuration not stated)
[9]
  T/C: 156 % of control
[10]
  T/C: 114 % of control and 118 % of control
[11]
  T/C: 114 % of control
[12]
  T/C: 66 % of control

## CC1/C=C/C=C/CC/C=C/C=C/C=C/C=C/C(OC2OC(C)C(O)C(N)C2O)CC2OC(CC(O)C(O)CCC(O)CC(O)CC(O)CC(=O)OC(C)C(C)C1O)CC(O)C2C(=O)O (configuration not stated)
dose: 150.0 mg/kg/injection, schedule: Q04DX003 (ip), vehicle: saline with Tween-80
  T/C: 59 % of control
dose: 300.0 mg/kg/injection, schedule: Q04DX003 (ip), vehicle: saline with Tween-80
  T/C: 55 % of control

## COc1cc([C@@H]2c3cc4c(cc3[C@@H](OC3OC5COC(C)OC5C(O)C3O)[C@H]3COC(=O)[C@H]23)OCO4)cc(OC)c1O (some centres not stated)
[7]
  T/C: 72 % of control
[8]
  T/C: 97 % of control
dose: 8.0 mg/kg/injection, schedule: Q01DX010 (sc), vehicle: saline
  T/C: 51 % of control
dose: 16.0 mg/kg/injection, schedule: Q01DX010 (sc), vehicle: saline
  T/C: 72 % of control

## O=C(O)CSc1nc(-c2ccccc2)c(-c2ccccc2)n1-c1ccccn1
dose: 50.0 mg/kg/injection, schedule: Q01DX010 (sc), vehicle: water
  T/C: 196 % of control
dose: 100.0 mg/kg/injection, schedule: Q01DX010 (sc), vehicle: water
  T/C: 50 % of control
dose: 200.0 mg/kg/injection, schedule: Q01DX010 (sc), vehicle: water
  T/C: 78 % of control

## O=C1C2(Cl)C3(Cl)C4(Cl)C(Cl)(Cl)C5(Cl)[C@]3(Cl)C1(Cl)[C@]5(Cl)C24Cl (some centres not stated)
dose: 37.5 mg/kg/injection, schedule: Q04DX003 (sc), vehicle: Klucel (hydroxypropylcellulose) (HPC)
  T/C: 120 % of control
[13]
  T/C: 121 % of control

## CC(C)CC(NC(=O)CF)C(=O)O (configuration not stated)
dose: 10.0 mg/kg/injection, schedule: Q04DX003 (sc), vehicle: saline
  T/C: 92 % of control
dose: 20.0 mg/kg/injection, schedule: Q04DX003 (sc), vehicle: saline
  T/C: 89 % of control

## CCOC(=O)C(CC(C)C)NC(=O)C(Cc1ccc(N(CCCl)CCCl)cc1)NC(C)=O (configuration not stated)
dose: 37.5 mg/kg/injection, schedule: Q04DX003 (sc), vehicle: saline with Tween-80
  T/C: 50 % of control
[10]
  T/C: -97 % of control and -96 % of control

## O=c1ssc(=Nc2ccccc2)n1-c1ccccc1
[14]
  T/C: 65 % of control
[15]
  T/C: 95 % of control
[16]
  T/C: 112 % of control
dose: 2400.0 mg/kg/injection, schedule: Q04DX003 (sc), vehicle: Klucel (hydroxypropylcellulose) (HPC)
  T/C: 106 % of control

## CN(C)N=Nc1cccc(C(N)=O)c1
[4]
  T/C: 100 % of control
[5]
  T/C: 52 % of control and 59 % of control and 64 % of control
[17]
  T/C: 4 % of control

## CCCC(=O)Oc1ccc(/C=N/NC(N)=S)nc1
[6]
  T/C: 101 % of control
dose: 200.0 mg/kg/injection, schedule: Q01DX010 (sc), vehicle: saline with Tween-80
  T/C: 113 % of control

## N=C(N)Sc1ccccn1
dose: 25.0 mg/kg/injection, schedule: Q01DX010 (sc), vehicle: saline
  T/C: 182 % of control

## COc1cc(OC)c(OC)cc1/C=C\c1ccnc2ccccc12
[14]
  T/C: 85 % of control
[15]
  T/C: 110 % of control
[16]
  T/C: 99 % of control

## O=C(O)c1cc(Cc2ccc(O)c(C(=O)O)c2)ccc1O (tested in a mixture with another compound)
[13]
  T/C: 63 % of control
[17]
  T/C: 55 % of control
[14]
  T/C: 93 % of control
[15]
  T/C: 76 % of control

## CS(=O)(=O)c1ncc(Br)cn1
dose: 25.0 mg/kg/injection, schedule: Q01DX010 (sc), vehicle: suspension in saline
  T/C: 79 % of control
dose: 75.0 mg/kg/injection, schedule: Q04DX003 (sc), vehicle: saline with Tween-80
  T/C: 98 % of control
dose: 150.0 mg/kg/injection, schedule: Q04DX003 (sc), vehicle: saline with Tween-80
  T/C: 121 % of control
[9]
  T/C: 119 % of control
